In brackets after ≈: the same amount, converted by molar mass. Entries after “also recorded” stand apart in the source; their conditions may differ.
What was measured:
[1] = system: C. neoformans (Strain ATCC 208821, H99 Type strain); assay: Antifungal assay, MIC; type: cell-based, Cryptococcus neoformans var. grubii; settings: for MIC: Cryptococcus neoformans, ATCC208821
Procedure: (§1) Fungi strains C. albicans (Strain ATCC 90028, CLSI reference) and C. neoformans (Strain ATCC 208821, H99 Type strain), were cultured for 3 days on Yeast Extract-Peptone Dextrose (YPD) agar at 30 °C. A yeast suspension of 1 × 10^6 to 5 × 10^6 CFU/mL (as determined by OD530) was prepared from five colonies. The suspension was subsequently diluted and added to each well of the compound-containing plates giving a final cell density of fungi suspension of 2.5 × 10^3 CFU/mL and a total volume of 50 μL. All plates were covered and incubated at 35 °C for 36 h without shaking.
(§2) Analysis: Growth inhibition of C. albicans was determined measuring absorbance at 630 nm (OD630), while the growth inhibition of C. neoformans was determined measuring the difference in absorbance between 600 and 570 nm (OD600–570), after the addition of resazurin (0.001% final concentration) and incubation at 35 °C for 2 h. The absorbance was measured using a Biotek Multiflo Synergy HTX plate reader. In both cases, the percentage of growth inhibition was calculated for each well, using the negative control (media only) and positive control (fungi without inhibitors) on the same plate. […] Due to a higher variance in growth and inhibition, a lower threshold was applied to the data for C. neoformans.

haemolytic activity = assay: Haemolysis assay; type: cell-based; settings: for Hc10 (concentration at 10% haemolytic activity): unit not given
Procedure: Hc10 (concentration at 10% haemolytic activity) was calculated by curve fitting the inhibition values vs. log(concentration) using a Sigmoidal dose-response function, with variable values for bottom, top and slope. The curve fitting is implemented using Pipeline Pilot’s dose-response component (giving similar results to similar tools such as GraphPad’s Prism and IDBS’s XlFit). […] DMax represents the highest percentage inhibition response for all concentrations tested. […] In addition, the value indicates if samples have been active, but curve fitting failed, mostly because only the single highest concentration was active.

[2] = system: S. aureus (Strain ATCC 43300, MRSA); assay: Antibacterial assay, MIC; type: cell-based, Staphylococcus aureus; settings: for MIC: Staphylococcus aureus
Procedure: (§3) All bacteria, S. aureus (Strain ATCC 43300, MRSA), E. coli (Strain ATCC 25922, FDA control strain), K. pneumoniae (Strain ATCC 700603, MDR), A. baumannii (Strain ATCC 19606, Type strain), P. aeruginosa (Strain ATCC 27853, Quality control strain), were cultured in Cation-adjusted Mueller Hinton broth (CAMHB) at 37 °C overnight. A sample of each culture was then diluted 40-fold in fresh broth and incubated at 37 °C for 1.5–3 h. The resultant mid-log phase cultures were diluted (CFU/mL measured by OD600), then added to each well of the compound containing plates, giving a cell density of 5 × 10^5 CFU/mL and a total volume of 50 μL. All the plates were covered and incubated at 37 °C for 18 h without shaking.
(§4) Analysis: Inhibition of bacterial growth was determined measuring absorbance at 600 nm (OD600), using a Tecan M1000 Pro monochromator plate reader. The percentage of growth inhibition was calculated for each well, using the negative control (media only) and positive control (bacteria without inhibitors) on the same plate as references. […]

[3] = system: C. albicans (Strain ATCC 90028, CLSI reference); assay: Antifungal assay, MIC; type: cell-based, Candida albicans; settings: for MIC: Candida albicans, ATCC90028
Procedure: as §1, §2

[4] = system: A. baumannii (Strain ATCC 19606, Type strain); assay: Antibacterial assay, MIC; type: cell-based, Acinetobacter baumannii; settings: for MIC: Acinetobacter baumannii, ATCC19606
Procedure: as §3, §4

HEK293 cells = assay: Cytotoxicity assay (resazurin); type: cell-based
Procedure: (§5) HEK293 cells were counted manually in a Neubauer haemocytometer and then plated in the 384-well plates containing the compounds to give a density of 6000 cells/well in a final volume of 50 μL. DMEM supplemented with 10% FBS was used as growth media and the cells were incubated together with the compounds for 20 h at 37 °C in 5% CO2. Analysis: Cytotoxicity (or cell viability) was measured by fluorescence, ex: 560/10 nm, em: 590/10 nm (F560/590), after addition of 5 μL of 25 μgmL^−1 Resazurin (2.3 μgmL^−1 final concentration) and after incubation for further 3h at 37 °C in 5% CO2. The fluorescence intensity was measured using a Tecan M1000 Pro monochromator plate reader, using automatic gain calculation CC50 (concentration at 50% cytotoxicity) were calculated by curve fitting the inhibition values vs. log(concentration) using sigmoidal dose-response function, with variable fitting values for bottom, top and slope.

[5] = system: Staphylococcus aureus, Acinetobacter baumannii, Candida albicans and Cryptococcus neoformans var. grubii; assay: Initial antimicrobial screen (CO-ADD); type: cell-based; settings: 10 μM; Active / Inactive
From the text: We then screened this series of 1,2,3-dithiazoles and 1,2,3-thiaselenazoles (8−15) against Staphylococcus aureus, Acinetobacter baumannii, Candida albicans and Cryptococcus neoformans var. grubii (Table 1) as part of the Community for Antimicrobial Drug Discovery (CO-ADD) initiative to develop new lead compounds [51]. These represent three distinct classes of microbes. Staphylococcus aureus (ATCC 43300) is a gram-positive bacterium derived from the super bug methicillin-resistant Staphylococcus aureus (MRSA). Acinetobacter baumannii (ATCC 19606) is a gram-negative bacterium hospital-derived infection with very few antibiotics that can treat this pathogen. Candida albicans (ATCC 90028) and Cryptococcus neoformans var. grubii (ATCC 208821) are both opportunistic fungi. These fungal pathogens are particularly dangerous for patients in hospital with immunodeficiencies, undergoing cancer chemotherapy and organ transplantation. These strains are considered by the World Health Organization (WHO) to be the highest priority to develop novel antibiotics for control of these bacteria and fungi. These are some of the most difficult to treat, particularly in a hospital setting where sepsis and pneumonia can quickly overcome the body’s immune system.
The 1,2,3-thiaselenazole analog (13) was potent on against three of the four pathogens with a similar profile to 9a without the activity on A. baumannii.
Antimicrobial screening was performed by CO-ADD (The Community for Antimicrobial Drug Discovery), Australia.
as §3, §4
Fungi strains C. albicans (Strain ATCC 90028, CLSI reference) and C. neoformans (Strain ATCC 208821, H99 Type strain), were cultured for 3 days on Yeast Extract-Peptone Dextrose (YPD) agar at 30 °C. A yeast suspension of 1 × 10^6 to 5 × 10^6 CFU/mL (as determined by OD530) was prepared from five colonies. The suspension was subsequently diluted and added to each well of the compound-containing plates giving a final cell density of fungi suspension of 2.5 × 10^3 CFU/mL and a total volume of 50 μL. All plates were covered and incubated at 35 °C for 36 h without shaking. […]

[6] = Cytotoxicity assay (resazurin); type: cell-based; settings: human; HEK293 cells, 20 h; unit not given in Table 1; read-out: CC50 (concentration at 50% cytotoxicity)
Procedure: as §5

[7] = ATCC 208821, inhibition ≥70% (method)
[8] = ATCC 43300 (MRSA), MIC = lowest concentration with inhibition ≥80%
[9] = ATCC 19606, MIC = lowest concentration with inhibition ≥80%

| Compound | Hc10 (concentration at 10% haemolytic activity) (haemolytic activity) | Initial Screen [5] | melting point | MIC [1, 7] | MIC [2, 8] | MIC ([3]; ATCC 90028, inhibition ≥80%) | MIC [4, 9] | CC50 at 20 h [6] | also measured |
| --- | --- | --- | --- | --- | --- | --- | --- | --- | --- |
| 8-Chloroindeno[1,2-d][1,2,3]thiaselenazole [Compound 9a] | >32 | – | – | – | – | – | – | – | Antifungal C. neoformans MIC [1, 7]: ≤0.25 µg/mL; Antibacterial S. aureus MIC [2, 8]: >32 µg/mL; Antifungal C. albicans MIC ([3]; ATCC 90028, inhibition ≥80%): ≤0.25 µg/mL; Antibacterial A. baumannii MIC [4, 9]: >32 µg/mL; CC50 (concentration at 50% cytotoxicity) (HEK293 cells; 20 h, unit not given in Table 1): >32 µM |
| 8-Phenylindeno[1,2-d][1,2,3]thiaselenazole [Compound 9b] | – | Inactive | – | – | – | – | – | – | – |
| Clc1c2nssc-2c(Cl)c1Cl [Compound 10a, 4,5,6-Trichlorocyclopenta[d][1,2,3]dithiazole] | – | Inactive | 122 to 124 °C | – | – | – | – | – | – |
| N#Cc1c2nssc-2c(Cl)c1Cl [Compound 10b, 5,6-Dichlorocyclopenta[1,2,3]dithiazole-4-carbonitrile] | >32 | – | 217 to 219 °C | ≤ 0.25 µg/mL | > 32 µg/mL | ≤ 0.25 µg/mL | > 32 µg/mL | > 32 µg/mL | Activity against C. neoformans (in words) [1]: maintained activity; Activity against S. aureus (in words) [2]: removed all activity; Activity against C. albicans (in words) [3]: maintained activity; Activity against A. baumannii (in words) [4]: removed all activity; Toxicity (in words) (HEK293 cells): no toxicity |
| CCOC(=O)c1c2nssc-2c(Cl)c1Cl [Compound 10c, Ethyl 5,6-dichlorocyclopenta[d][1,2,3]dithiazole-4-carboxylate] | >32 | – | 80 to 82 °C | > 32 µg/mL | > 32 µg/mL | ≤ 0.25 µg/mL | > 32 µg/mL | > 32 µg/mL | Activity against C. albicans (in words) [3]: selective for C. albicans; Toxicity (in words) (HEK293 cells): no toxicity |
| Clc1c2n[se]sc-2c(Cl)c1Cl [Compound 11a, 4,5,6-Trichlorocyclopenta[d][1,2,3]thiaselenazole] | >32 | – | 117 to 119 °C | ≤ 0.25 µg/mL | ≤ 0.25 µg/mL | ≤ 0.25 µg/mL | ≤ 0.25 µg/mL | 0.52 µg/mL (≈ 1.78 µM) | Activity against C. neoformans (in words) [1]: very potent; Haemolysis (in words) (haemolytic activity): no haemolysis; Activity against S. aureus (in words) [2]: very potent; Activity against C. albicans (in words) [3]: very potent; Activity against A. baumannii (in words) [4]: very potent |
| N#Cc1c2n[se]sc-2c(Cl)c1Cl [Compound 11b, 5,6-Dichlorocyclopenta[d][1,2,3]thiaselenazole-4-carbonitrile] | >32 | – | 171 to 173 °C | ≤ 0.25 µg/mL | ≤ 0.25 µg/mL | ≤ 0.25 µg/mL | > 32 µg/mL | > 32 µg/mL | Activity against S. aureus (in words) [2]: potent |
| CCOC(=O)c1c2n[se]sc-2c(Cl)c1Cl [Compound 11c, Ethyl 5,6-dichlorocyclopenta[d][1,2,3]thiaselenazole-4-carboxylate] | >32 | – | 188 to 190 °C | ≤ 0.25 µg/mL | ≤ 0.25 µg/mL | ≤ 0.25 µg/mL | > 32 µg/mL | 7 µg/mL (≈ 21.3 µM) | Haemolysis (in words) (haemolytic activity): no haemolysis |
| ClC1=C2SSN=C2c2ccccc2C(Cl)=C1Cl [Compound 12, 4,5,6-Trichlorobenzo[6,7]cyclohepta[1,2-d][1,2,3]dithiazole] | – | Inactive | 119 to 121 °C | – | – | – | – | – | – |
| ClC1=C2S[Se]N=C2c2ccccc2C(Cl)=C1Cl [Compound 13, 4,5,6-Trichlorobenzo[6,7]cyclohepta[1,2-d][1,2,3]thiaselenazole] | >32 | – | 144 to 145 °C | ≤ 0.25 µg/mL | ≤ 0.25 µg/mL | ≤ 0.25 µg/mL | > 32 µg/mL | 0.48 µg/mL (≈ 1.31 µM) | – |
| c1ccc2c(c1)N=C1SSN=C1O2 [Compound 14, Benzo[b][1,2,3]dithiazolo[5,4-e][1,4]oxazine] | – | not fruitful; also recorded: Inactive | 182 to 184 °C | – | – | – | – | – | – |

From article PMC7400446, “Antimicrobial and Antifungal Activity of Rare Substituted 1,2,3-Thiaselenazoles and Corresponding Matched Pair 1,2,3-Dithiazoles” (Antibiotics, 2020)
